The supplement of paper PMC10307832

Legend:
Assay in all cases: relative viability (nuclei count vs DMSO), 5 days (fraction); higher = more cells survive
[1] = compound: Cc1ccc2nc(NCCN)c3ncc(C)n3c2c1 + CC(=O)Nc1cccc(-n2c(=O)n(C3CC3)c(=O)c3c(Nc4ccc(I)cc4F)n(C)c(=O)c(C)c32)c1 [Trametinib] (partner 0.02 µM)
Method in brief: (§1)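 Relative viability equals treated-well nuclei counts divided by vehicle-well nuclei counts. Counts came from 4× images of lung cancer cell lines grown in 1536-well plates for 5 days after pin-tool dosing on the day after seeding. Dosing used one drug alone or a fixed anchor-drug dose plus five library-drug doses (not always all listed) in √10 steps, and values are medians of duplicate plates.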

[2] = compound: Cc1ccc2nc(NCCN)c3ncc(C)n3c2c1 + CC(=O)c1c(C)c2cnc(Nc3ccc(N4CCNCC4)cn3)nc2n(C2CCCC2)c1=O [Palbociclib] (partner 0.5 µM)
Method in brief: as §1

[3] = compound: Cc1ccc2nc(NCCN)c3ncc(C)n3c2c1 + CC1(C)CCC(c2ccc(Cl)cc2)=C(CN2CCN(c3ccc(C(=O)NS(=O)(=O)c4ccc(N[C@H](CCN5CCOCC5)CSc5ccccc5)c(S(=O)(=O)C(F)(F)F)c4)cc3)CC2)C1 [Navitoclax] (partner 0.5 µM)
Method in brief: as §1

[4] = compound: Cc1ccc2nc(NCCN)c3ncc(C)n3c2c1 + C[C@]1(O)C[C@@H](c2nc(-c3ccc4ccc(-c5ccccc5)nc4c3)c3c(N)nccn32)C1 [Linsitinib] (partner 1 µM)
Method in brief: as §1

Cell Line	relative viability ([1]; first compound 0.04 µM)	relative viability ([1]; first compound 0.1265 µM)	relative viability ([1]; first compound 0.4 µM)	relative viability ([1]; first compound 1.265 µM)	relative viability ([1]; first compound 4 µM)	relative viability ([2]; first compound 0.04 µM)	relative viability ([2]; first compound 0.1265 µM)	relative viability ([2]; first compound 0.4 µM)	relative viability ([2]; first compound 1.265 µM)	relative viability ([2]; first compound 4 µM)	relative viability ([3]; first compound 0.04 µM)	relative viability ([3]; first compound 0.1265 µM)	relative viability ([3]; first compound 0.4 µM)	relative viability ([3]; first compound 1.265 µM)	relative viability ([3]; first compound 4 µM)	relative viability ([4]; first compound 0.04 µM)	relative viability ([4]; first compound 0.1265 µM)	relative viability ([4]; first compound 0.4 µM)	relative viability ([4]; first compound 1.265 µM)	relative viability ([4]; first compound 4 µM)
NCI-H1437	0.578	0.463	0.445	0.415	0.381	0.3	0.315	0.296	0.248	0.287	1.08	1.03	1.12	1.07	0.992	0.991	0.932	1.03	0.936	0.821
SK-LU-1	0.427	0.509	0.478	0.546	0.462	0.412	0.383	0.385	0.393	0.38	1.02	0.898	0.812	0.769	0.778	1.18	1.09	1.12	1.16	1.04
H3255	0.562	0.554	0.564	0.523	0.575	0.329	0.298	0.312	0.327	0.317	0.666	0.479	0.638	0.535	0.469	0.955	0.876	0.819	0.915	0.944
Calu-6	–	–	–	–	–	–	–	–	–	–	0.829	0.799	1.05	0.807	0.321	0.872	0.895	0.966	0.982	0.983
NCI-H1792	0.645	0.397	–	0.405	0.488	0.694	0.649	0.652	0.562	0.625	0.642	0.658	0.645	0.619	0.594	0.627	0.543	0.484	0.463	0.405
NCI-H2170	0.892	0.915	0.871	0.83	0.921	0.388	0.445	0.356	0.381	0.342	0.687	0.659	0.59	0.601	0.598	–	–	–	–	–
NCI-H1650	0.57	0.499	0.739	0.494	0.427	0.303	0.375	0.324	0.349	0.226	1.3	1	1.12	1.25	0.934	–	–	–	–	–
NCI-H2087	0.18	0.208	0.194	0.16	0.204	0.253	0.271	0.174	0.286	0.323	0.985	1.09	1.01	0.856	1.06	1.03	0.963	0.789	0.992	0.877
HCC-366	0.385	0.395	0.369	0.336	0.284	0.409	0.392	0.343	0.382	0.352	1.26	1.07	1.03	0.997	1.02	0.622	0.612	0.642	0.78	0.49
